Experimental data from ChEMBL document CHEMBL1909046, “DrugMatrix in vitro pharmacology data”.

Legend:
Nitric oxide synthase 1 = Nitric oxide synthase 1 (Rattus norvegicus, UniProt P29476); format: tissue-based, Cerebellum; further: in other assays of this panel Not Active means under 50% inhibition at 10 µM
[1] = biological target: Sodium-dependent dopamine transporter (Homo sapiens, UniProt Q01959); test: DRUGMATRIX: Dopamine Transporter radioligand binding (ligand: [125I] RTI-55); format: cell membranes, CHO-K1, Membrane; settings: Not Active = under 50% inhibition at 10 µM
Chain of Sodium-dependent dopamine transporter (Q01959 whole entry): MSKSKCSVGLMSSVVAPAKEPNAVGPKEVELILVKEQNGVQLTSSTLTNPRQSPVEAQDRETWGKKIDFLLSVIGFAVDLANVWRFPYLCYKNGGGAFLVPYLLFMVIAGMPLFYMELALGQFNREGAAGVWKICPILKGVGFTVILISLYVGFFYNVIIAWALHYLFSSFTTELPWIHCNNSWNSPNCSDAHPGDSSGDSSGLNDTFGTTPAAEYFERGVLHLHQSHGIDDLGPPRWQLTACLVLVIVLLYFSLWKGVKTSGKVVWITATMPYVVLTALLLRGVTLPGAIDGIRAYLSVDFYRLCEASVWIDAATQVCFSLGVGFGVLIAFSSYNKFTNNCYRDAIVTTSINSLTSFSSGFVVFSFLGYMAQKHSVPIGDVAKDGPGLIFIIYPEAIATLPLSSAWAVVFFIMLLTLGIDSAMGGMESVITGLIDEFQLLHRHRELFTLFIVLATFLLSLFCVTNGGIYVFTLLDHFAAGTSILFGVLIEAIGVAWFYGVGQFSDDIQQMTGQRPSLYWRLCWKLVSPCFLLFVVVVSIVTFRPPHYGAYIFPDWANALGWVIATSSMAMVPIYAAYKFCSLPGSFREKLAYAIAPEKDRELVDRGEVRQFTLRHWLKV

[2] = DRUGMATRIX: Imidazoline I2, Central radioligand binding (ligand: [3H] Idazoxan); format: cell membranes, Rattus norvegicus, Wistar, Cerebral cortex, Membrane; settings: Not Active = under 50% inhibition at 10 µM
[3] = biological target: T1, Alpha-1D adrenergic receptor (Homo sapiens, UniProt P25100); format: cell membranes, HEK293, Membrane; further: in other assays of this panel Not Active means under 50% inhibition at 10 µM
T1 sequence (P25100 whole entry): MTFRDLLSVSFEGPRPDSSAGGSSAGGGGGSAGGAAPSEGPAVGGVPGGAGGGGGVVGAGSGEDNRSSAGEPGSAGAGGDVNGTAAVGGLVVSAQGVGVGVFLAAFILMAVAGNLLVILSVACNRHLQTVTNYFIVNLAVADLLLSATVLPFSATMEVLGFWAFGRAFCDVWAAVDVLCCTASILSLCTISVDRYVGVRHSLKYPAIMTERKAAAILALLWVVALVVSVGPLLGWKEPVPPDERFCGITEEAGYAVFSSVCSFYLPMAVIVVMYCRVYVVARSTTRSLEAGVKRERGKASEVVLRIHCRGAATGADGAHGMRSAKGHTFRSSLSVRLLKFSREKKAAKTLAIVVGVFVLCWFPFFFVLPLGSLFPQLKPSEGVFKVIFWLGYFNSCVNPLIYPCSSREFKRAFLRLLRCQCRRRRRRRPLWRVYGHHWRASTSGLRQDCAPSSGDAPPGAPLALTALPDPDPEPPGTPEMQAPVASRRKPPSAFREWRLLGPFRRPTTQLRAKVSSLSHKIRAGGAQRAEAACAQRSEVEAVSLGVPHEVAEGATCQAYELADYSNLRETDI

Glucocorticoid receptor = biological target: T2, Glucocorticoid receptor (Homo sapiens, UniProt P04150); settings: hela s3; further: in other assays of this panel Not Active means under 50% inhibition at 10 µM
T2 sequence (P04150 whole entry): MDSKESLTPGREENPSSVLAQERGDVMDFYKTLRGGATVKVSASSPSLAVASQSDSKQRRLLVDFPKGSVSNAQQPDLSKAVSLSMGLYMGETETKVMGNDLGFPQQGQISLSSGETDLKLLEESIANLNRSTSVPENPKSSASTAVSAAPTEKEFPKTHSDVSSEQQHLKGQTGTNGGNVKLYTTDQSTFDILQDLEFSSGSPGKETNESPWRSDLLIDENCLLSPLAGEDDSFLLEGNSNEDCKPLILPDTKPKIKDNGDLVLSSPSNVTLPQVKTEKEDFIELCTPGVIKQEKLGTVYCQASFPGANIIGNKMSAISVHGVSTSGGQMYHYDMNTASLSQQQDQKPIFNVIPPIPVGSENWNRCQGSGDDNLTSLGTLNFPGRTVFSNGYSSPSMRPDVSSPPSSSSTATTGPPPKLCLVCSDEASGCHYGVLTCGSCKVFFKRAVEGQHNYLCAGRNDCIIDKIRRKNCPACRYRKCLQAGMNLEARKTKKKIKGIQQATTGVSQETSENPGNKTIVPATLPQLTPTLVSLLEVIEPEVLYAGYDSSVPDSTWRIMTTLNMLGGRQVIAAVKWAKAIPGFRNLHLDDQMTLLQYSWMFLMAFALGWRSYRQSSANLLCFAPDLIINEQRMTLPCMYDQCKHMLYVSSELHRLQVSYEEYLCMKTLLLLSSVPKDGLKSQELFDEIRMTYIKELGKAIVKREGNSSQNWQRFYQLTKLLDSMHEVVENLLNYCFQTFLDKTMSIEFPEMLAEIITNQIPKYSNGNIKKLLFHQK

[4] = biological target: Vascular endothelial growth factor receptor 1 (Homo sapiens, UniProt P17948); format: cell-based; settings: huvec; further: in other assays of this panel Not Active means under 50% inhibition at 10 µM
Chain of Vascular endothelial growth factor receptor 1 (P17948 whole entry): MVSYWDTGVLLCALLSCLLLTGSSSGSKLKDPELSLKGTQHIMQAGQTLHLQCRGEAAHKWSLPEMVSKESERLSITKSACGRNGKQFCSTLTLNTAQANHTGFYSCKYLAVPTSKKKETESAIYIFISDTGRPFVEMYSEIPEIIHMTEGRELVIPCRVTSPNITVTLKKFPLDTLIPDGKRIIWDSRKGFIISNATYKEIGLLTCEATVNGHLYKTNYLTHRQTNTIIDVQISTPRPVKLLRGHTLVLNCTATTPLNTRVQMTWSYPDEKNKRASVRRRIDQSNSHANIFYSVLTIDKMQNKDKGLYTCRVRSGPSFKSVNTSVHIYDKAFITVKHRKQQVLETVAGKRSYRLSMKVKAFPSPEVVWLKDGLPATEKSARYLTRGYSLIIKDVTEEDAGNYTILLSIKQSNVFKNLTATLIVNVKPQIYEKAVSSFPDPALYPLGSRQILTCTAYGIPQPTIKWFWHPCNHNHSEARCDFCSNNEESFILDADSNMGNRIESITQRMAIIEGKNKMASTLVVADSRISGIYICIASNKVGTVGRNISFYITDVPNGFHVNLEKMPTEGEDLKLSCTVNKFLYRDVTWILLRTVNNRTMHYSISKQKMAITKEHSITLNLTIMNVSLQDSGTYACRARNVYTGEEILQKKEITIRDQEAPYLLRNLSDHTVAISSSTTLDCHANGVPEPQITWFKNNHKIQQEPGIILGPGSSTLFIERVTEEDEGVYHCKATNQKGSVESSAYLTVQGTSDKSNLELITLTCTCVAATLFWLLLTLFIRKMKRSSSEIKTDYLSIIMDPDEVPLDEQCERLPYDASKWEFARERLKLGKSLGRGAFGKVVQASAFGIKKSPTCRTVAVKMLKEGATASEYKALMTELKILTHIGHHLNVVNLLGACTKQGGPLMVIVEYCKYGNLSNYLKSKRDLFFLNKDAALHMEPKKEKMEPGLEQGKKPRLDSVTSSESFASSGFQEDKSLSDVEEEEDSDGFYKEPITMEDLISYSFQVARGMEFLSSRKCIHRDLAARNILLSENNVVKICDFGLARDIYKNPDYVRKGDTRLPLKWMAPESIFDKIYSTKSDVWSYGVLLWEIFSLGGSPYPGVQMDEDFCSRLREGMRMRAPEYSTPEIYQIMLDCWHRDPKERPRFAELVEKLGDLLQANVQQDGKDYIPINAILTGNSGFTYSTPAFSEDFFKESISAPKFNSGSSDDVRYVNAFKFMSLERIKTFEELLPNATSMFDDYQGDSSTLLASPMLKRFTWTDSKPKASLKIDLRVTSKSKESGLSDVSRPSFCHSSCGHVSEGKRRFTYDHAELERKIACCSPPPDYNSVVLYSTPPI

Chain of Nitric oxide synthase 1 (P29476 whole entry): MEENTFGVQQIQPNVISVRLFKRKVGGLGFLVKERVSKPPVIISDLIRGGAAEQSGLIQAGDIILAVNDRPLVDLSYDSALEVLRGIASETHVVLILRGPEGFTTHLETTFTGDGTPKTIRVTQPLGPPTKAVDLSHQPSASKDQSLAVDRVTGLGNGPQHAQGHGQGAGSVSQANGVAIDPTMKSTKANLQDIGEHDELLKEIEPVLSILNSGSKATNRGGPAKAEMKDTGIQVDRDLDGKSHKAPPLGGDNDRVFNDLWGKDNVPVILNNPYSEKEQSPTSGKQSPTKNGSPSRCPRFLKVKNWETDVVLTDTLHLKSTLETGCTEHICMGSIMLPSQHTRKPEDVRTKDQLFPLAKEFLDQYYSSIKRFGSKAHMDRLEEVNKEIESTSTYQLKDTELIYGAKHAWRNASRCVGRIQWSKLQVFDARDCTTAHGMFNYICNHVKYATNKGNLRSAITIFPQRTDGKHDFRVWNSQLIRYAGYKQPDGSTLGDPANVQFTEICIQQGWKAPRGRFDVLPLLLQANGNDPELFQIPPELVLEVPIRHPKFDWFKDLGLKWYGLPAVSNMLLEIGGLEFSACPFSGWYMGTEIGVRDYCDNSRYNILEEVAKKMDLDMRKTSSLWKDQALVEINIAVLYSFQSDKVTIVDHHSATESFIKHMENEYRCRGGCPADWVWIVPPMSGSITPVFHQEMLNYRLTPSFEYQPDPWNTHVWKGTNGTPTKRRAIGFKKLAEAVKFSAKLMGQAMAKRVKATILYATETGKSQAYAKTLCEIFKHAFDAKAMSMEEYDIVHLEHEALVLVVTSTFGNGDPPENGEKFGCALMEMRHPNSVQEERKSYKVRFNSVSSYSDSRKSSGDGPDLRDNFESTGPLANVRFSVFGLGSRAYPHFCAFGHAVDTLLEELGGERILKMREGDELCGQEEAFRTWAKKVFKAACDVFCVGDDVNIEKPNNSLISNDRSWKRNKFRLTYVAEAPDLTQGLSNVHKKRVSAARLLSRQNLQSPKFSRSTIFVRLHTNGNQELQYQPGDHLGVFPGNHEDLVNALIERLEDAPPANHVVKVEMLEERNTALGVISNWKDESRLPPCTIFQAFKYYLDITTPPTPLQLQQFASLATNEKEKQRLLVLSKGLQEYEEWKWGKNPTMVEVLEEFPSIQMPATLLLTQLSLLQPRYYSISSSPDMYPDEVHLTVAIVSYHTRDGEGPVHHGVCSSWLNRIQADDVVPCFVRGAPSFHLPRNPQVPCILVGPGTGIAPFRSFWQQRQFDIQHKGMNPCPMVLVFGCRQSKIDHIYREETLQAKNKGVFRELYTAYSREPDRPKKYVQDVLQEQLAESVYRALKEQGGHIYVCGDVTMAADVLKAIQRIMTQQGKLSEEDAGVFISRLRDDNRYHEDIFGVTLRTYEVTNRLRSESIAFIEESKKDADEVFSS

Row | Compound | IC50 (Nitric oxide synthase 1) | IC50 ([1]; cho-k1) | IC50 [2] | Ki [2] | IC50 ([3]; hek293) | IC50 (Glucocorticoid receptor) | IC50 [4] | IC50 ([1]; read-out: IC50) | Ki ([1]; read-out: Ki) | IC50 ([2]; read-out: IC50) | Ki ([2]; read-out: Ki) | IC50 ([3]; read-out: IC50) | Ki ([3]; read-out: Ki)
1 | C[C@@H]1[C@H](O)[C@@H](C)/C=C/C=C/C=C/C=C/C=C/C=C/C=C/[C@H](O[C@@H]2O[C@H](C)[C@@H](O)[C@H](N)[C@@H]2O)C[C@@H]2O[C@](O)(C[C@@H](O)C[C@@H](O)[C@H](O)CC[C@@H](O)C[C@@H](O)CC(=O)O[C@H]1C)C[C@H](O)[C@H]2C(=O)O [AMPHOTERICIN B] | Not Active | Not Active | Not Active | Not Active | Not Active | Not Active | Not Active | – | – | – | – | – | –
2 | COc1cc(/C=C/C(=O)O)ccc1O [FERULATE] | Not Active | Not Active | Not Active | Not Active | Not Active | Not Active | Not Active | – | – | – | – | – | –
3 | C=CCN1CC[C@]23c4c5ccc(O)c4O[C@H]2/C(=N/N=C2\CC[C@@]4(O)[C@H]6Cc7ccc(O)c8c7[C@@]4(CCN6CC=C)[C@H]2O8)CC[C@@]3(O)[C@H]1C5 [NALOXONAZINE] | Not Active | Not Active | Not Active | Not Active | Not Active | Not Active | Not Active | – | – | – | – | – | –
4 | CN(CCOc1ccc(C[C@H](Nc2ccccc2C(=O)c2ccccc2)C(=O)O)cc1)c1ccccn1 | Not Active | – | Not Active | Not Active | Not Active | Not Active | Not Active | 13.6 µM | 10.8 µM | – | – | – | –
5 | Nc1nc(F)nc2c1ncn2[C@@H]1O[C@H](CO)[C@@H](O)[C@@H]1O [FLUDARABINE] | Not Active | Not Active | Not Active | Not Active | Not Active | Not Active | Not Active | – | – | – | – | – | –
6 | OC[C@H]1OC2C3[C@@H](CO)OC(O[C@H]4[C@H](O)[C@@H](O)[C@@H](O[C@H]5[C@H](O)[C@@H](O)[C@@H](O[C@H]6[C@H](O)[C@@H](O)[C@@H](O[C@H]7[C@H](O)[C@@H](O)[C@@H](O[C@H]8[C@H](O)[C@@H](O)[C@@H](O[C@H]9[C@H](O)[C@@H](O)C(OC1[C@H](O)[C@H]2O)O[C@@H]9CO)O[C@@H]8CO)O[C@@H]7CO)O[C@@H]6CO)O[C@@H]5CO)O[C@@H]4CO)[C@H](O)[C@H]3O | Not Active | Not Active | Not Active | Not Active | Not Active | Not Active | Not Active | – | – | – | – | – | –
7 | C=CCO [ALLYL ALCOHOL] | Not Active | Not Active | Not Active | Not Active | Not Active | Not Active | Not Active | – | – | – | – | – | –
8 | C[C@]12CC[C@@H](O)C[C@@H]1CC[C@@H]1[C@@H]2CC[C@]2(C)C(=O)CC[C@@H]12 [ANDROSTERONE] | Not Active | Not Active | Not Active | Not Active | Not Active | Not Active | Not Active | – | – | – | – | – | –
9 | COC(=O)Nc1nc2ccc(Sc3ccccc3)cc2[nH]1 [FENBENDAZOLE] | Not Active | Not Active | Not Active | Not Active | Not Active | Not Active | Not Active | – | – | – | – | – | –
10 | O=C(Nc1ccc(Cl)c(Cl)c1)c1cc(Cl)cc(Cl)c1O [3,3',4',5-TETRACHLOROSALICYLANILIDE] | Not Active | Not Active | Not Active | Not Active | Not Active | Not Active | Not Active | – | – | – | – | – | –
11 | CCN(CCO)CCCC(C)Nc1ccnc2cc(Cl)ccc12 (stereo unspecified) [HYDROXYCHLOROQUINE] | Not Active | Not Active | – | – | – | Not Active | Not Active | – | – | 0.479 µM | 0.319 µM | 4.77 µM | 2.35 µM
12 | CC1(COc2ccc(CC3SC(=O)NC3=O)cc2)CCCCC1 (stereo unspecified) [CIGLITAZONE] | Not Active | Not Active | Not Active | Not Active | Not Active | Not Active | Not Active | – | – | – | – | – | –
